Measured values reported in a melting point compilation (Tetko et al.; mined from patent text by program, amines drawn as free bases though some values may be those of a salt).

Row | SMILES | melting point [°C]
1 | C[C@H](NC(=O)OCc1ccccc1)C(=O)N1CCC[C@H]1C(=O)NC1CCCC1 | 118 to 119
2 | CN(C)CCCC1(C)CCc2cccc(O)c2O1 (stereo not given) | 127 to 133
3 | CCCSCCNC(=O)n1cc(F)c(=O)[nH]c1=O | 112 to 114
4 | CC1(C)C(C(=O)NO)N(S(=O)(=O)c2ccc(-c3ccc(Br)cc3)cc2)CCS1(=O)=O (stereo not given) | 190 to 191
5 | CCOc1nn(C(=S)Oc2ccccc2)c(=O)n1C | 123
6 | CCOC(=O)N(C)CC1CN(c2c(F)cc(C(=O)O)c(F)c2F)CCO1 (stereo not given) | 170 to 172
7 | COc1ccc(CNC(=O)C(OC)OC)cc1OC | 60
8 | Clc1cc(-c2nnn[nH]2)nc(Cl)c1Cl | 197 to 198
9 | Fc1ccccc1-c1nc2ncccc2o1 | 126 to 127
10 | N#Cc1cn(CCl)cc1-c1ccccc1Cl | 97 to 99
11 | COc1cc(N)c(Cl)cc1C(=O)NC1CCN(CC2CCN(C(=O)C3CCOCC3)CC2)CC1 | 235 to 237
12 | O=c1cc(CO)n(Cc2ccccc2)cc1OCc1ccccc1 | 146 to 147
13 | O=C=Nc1cc([N+](=O)[O-])c(Cl)cc1F | 43 to 46
14 | CC(C)(C)OC(=O)Nc1nc(C(=CC(C)(C)C(=O)OCc2ccccc2)C(=O)O)cs1 | 175 to 177
15 | COc1ccc(-c2ccc(-c3nc(-c4ccc(C(F)(F)F)cc4)oc3C)cc2)cc1 | 167 to 168
16 | Cc1c(C(O)c2ccccc2)nc2n1CCc1ccccc1C2OC1CCN(C)CC1 (stereo not given) | 85
17 | OCCOCCNCc1ccc(-c2cc3ncnc(Nc4ccc5[nH]ccc5c4)c3s2)cc1 | 111 to 119
18 | COC(=O)C(Oc1cc(OCc2ccsc2)ccc1C#N)c1ccccc1C(F)(F)F (racemic) | 104 to 108
19 | NS(=O)(=O)c1cc2c(cc1Cl)C(=O)N(CCCN1CCOCC1)C2=O | 190 to 191
20 | COc1cccc(NC(=O)CC23CC4CC(CC(C4)C2)C3)c1C | 173 to 175
21 | COc1ccc(CNc2cc3c(Nc4ccc(OCc5ccccn5)c(Cl)c4)ncnc3cn2)cc1 | 182 to 184
22 | Nc1nc(-c2ccccc2Cl)nc(N2CCCCC2)n1 | 184 to 186
23 | COC(=O)c1ccccc1C1=NC(C)(C(C)C)C(=O)N1O (stereo not given) | 146 to 150
24 | O=C(O)CCNC(=O)C(=Cc1cc(F)cc(F)c1)CS | 125

Next, values leading:

Row | melting point [°C] | SMILES
25 | 131 to 133 | CCOCc1cc2cccc(OC)c2oc1=O
26 | > 300 | CNC(=O)c1cccc(Nc2ncnc3[nH]cc(C(=O)c4cccc5ccccc45)c23)c1
27 | 207 to 210 | COc1ccc(CN2CCC(N3Cc4cc(Cl)c(S(N)(=O)=O)cc4C3=O)CC2)cc1
28 | 170 to 171 | CCc1ccc(-c2c(Cl)c(CN3C(=O)CCC3=O)nc3sc4c(c23)CCN(C(=O)OCc2ccccc2)C4)cc1
29 | 171 | OC(c1ccc(F)cc1)c1ccc2noc(-c3cccc(Cl)c3)c2c1 (stereo not given)
30 | 235 to 236 | Cc1nc2ccc(C(=O)O)[nH]c-2c1Cc1ccc(Cl)cc1Cl
31 | 237 to 240 | O=C(O)c1ccc(NCc2cncc3ccccc23)cc1
32 | 209 to 211 | COc1ccc(-c2c(C3CCN(C)CC3)[nH]c(=O)c3ccccc23)cc1
33 | 196 | Nc1cc(Oc2cc(Cl)cc(Cl)c2)nc(C(=O)O)c1Cl
34 | 188 to 190 | O=C(C=Cc1ccc(Br)cc1)N1CCc2c([nH]c3ccccc23)C1c1ccc2c(c1)OCO2 (stereo not given)
35 | 167 to 169 | Cc1ccc(N2CCN(CCC3NC(=O)c4ccccc43)CC2)cc1C (stereo not given)
36 | 108 to 109 | Brc1cncc(OCc2ccc3ccccc3c2)c1
37 | 175 to 179 | COc1ccc2c(-c3c(F)cccc3F)noc2c1Cl
38 | 280 | CCC1(O)c2cc3n(c(=O)c2COC1O)Cc1cc2ccccc2nc1-3 (stereo not given)
39 | 195 | CCOC(=O)Cc1ccc(-c2ccc3c(=O)c(C(=O)NC)c(N)n(CC)c3n2)cc1
40 | 222 | N#Cc1ccc(O)c(Cc2cc(F)cc(Cc3cc(C#N)ccc3O)c2O)c1
